Source: PubChem BioAssay (NCI)
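GI50: concentration for 50% inhibition of growth. TGI: concentration producing complete growth inhibition.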

Assays:
Assay in all cases: NCI-60 cell line screen, 384-well format
NCI/ADR-RES ovarian = test system: NCI/ADR-RES ovarian
OVCAR-4 ovarian = test system: OVCAR-4 ovarian
SF-268 CNS = test system: SF-268 CNS
SNB-19 CNS = test system: SNB-19 CNS
EKVX NSCLC = test system: EKVX NSCLC
MOLT-4 leukemia = test system: MOLT-4 leukemia
KM12 colon = test system: KM12 colon
MDA-MB-231 breast = test system: MDA-MB-231 breast
MDA-MB-435 melanoma = test system: MDA-MB-435 melanoma
MALME-3M melanoma = test system: MALME-3M melanoma
M14 melanoma = test system: M14 melanoma
MDA-MB-468 breast = test system: MDA-MB-468 breast
SK-MEL-5 melanoma = test system: SK-MEL-5 melanoma
TK-10 renal = test system: TK-10 renal
UACC-62 melanoma = test system: UACC-62 melanoma
IGROV1 ovarian = test system: IGROV1 ovarian
OVCAR-8 ovarian = test system: OVCAR-8 ovarian
RPMI-8226 leukemia = test system: RPMI-8226 leukemia
BT-549 breast = test system: BT-549 breast
DU-145 prostate = test system: DU-145 prostate
SK-OV-3 ovarian = test system: SK-OV-3 ovarian
UACC-257 melanoma = test system: UACC-257 melanoma
OVCAR-3 ovarian = test system: OVCAR-3 ovarian
NCI-H460 NSCLC = test system: NCI-H460 NSCLC
HS 578T breast = test system: HS 578T breast
ACHN renal = test system: ACHN renal
T-47D breast = test system: T-47D breast
A498 renal = test system: A498 renal
HT29 colon = test system: HT29 colon
LOX IMVI melanoma = test system: LOX IMVI melanoma
K-562 leukemia = test system: K-562 leukemia
UO-31 renal = test system: UO-31 renal
HCT-15 colon = test system: HCT-15 colon
U251 glioblastoma = test system: U251 glioblastoma
HOP-62 NSCLC = test system: HOP-62 NSCLC
CAKI-1 renal = test system: CAKI-1 renal
A549 NSCLC = test system: A549 NSCLC
PC-3 prostate = test system: PC-3 prostate
SF-539 CNS = test system: SF-539 CNS
SNB-75 CNS = test system: SNB-75 CNS
COLO 205 colon = test system: COLO 205 colon
NCI-H322M lung = test system: NCI-H322M lung
SW-620 colon = test system: SW-620 colon
NCI-H522 lung = test system: NCI-H522 lung
HL-60(TB) leukemia = test system: HL-60(TB) leukemia

Structure (SMILES): Cc1cc(-c2ncc(-c3cccnc3)cc2/C=C/c2ccccc2)cnc1-c1cccnc1
- GI50 (NCI/ADR-RES ovarian): 2190 nM
- TGI (NCI/ADR-RES ovarian): 5.42 µM
- GI50 (OVCAR-4 ovarian): 2750 nM
- TGI (OVCAR-4 ovarian): 9.25 µM
- GI50 (SF-268 CNS): 3.68 µM
- TGI (SF-268 CNS): 15.3 µM
- GI50 (SNB-19 CNS): 3.82 µM
- TGI (SNB-19 CNS): 19.6 µM
- GI50 (EKVX NSCLC): 3.15 µM
- GI50 (MOLT-4 leukemia): 1130 nM
- TGI (MOLT-4 leukemia): 2340 nM
- GI50 (KM12 colon): 3.15 µM
- TGI (KM12 colon): 12.1 µM
- GI50 (MDA-MB-231 breast): 4.15 µM
- TGI (MDA-MB-231 breast): 22.5 µM
- GI50 (MDA-MB-435 melanoma): 6.49 µM
- GI50 (MALME-3M melanoma): 2530 nM
- TGI (MALME-3M melanoma): 6.85 µM
- GI50 (M14 melanoma): 3.76 µM
- TGI (M14 melanoma): 12.6 µM
- GI50 (MDA-MB-468 breast): 3.34 µM
- GI50 (SK-MEL-5 melanoma): 1120 nM
- TGI (SK-MEL-5 melanoma): 2570 nM
- GI50 (TK-10 renal): 3.24 µM
- GI50 (UACC-62 melanoma): 2160 nM
- TGI (UACC-62 melanoma): 7.5 µM
- GI50 (IGROV1 ovarian): 3.72 µM
- GI50 (OVCAR-8 ovarian): 2410 nM
- TGI (OVCAR-8 ovarian): > 100 µM
- GI50 (RPMI-8226 leukemia): 620 nM
- TGI (RPMI-8226 leukemia): 2370 nM
- GI50 (BT-549 breast): 2320 nM
- TGI (BT-549 breast): 9.63 µM
- GI50 (DU-145 prostate): 1810 nM
- TGI (DU-145 prostate): 3.55 µM
- GI50 (SK-OV-3 ovarian): 3.17 µM
- TGI (SK-OV-3 ovarian): 11.3 µM
- GI50 (UACC-257 melanoma): 6.52 µM
- GI50 (OVCAR-3 ovarian): 2370 nM
- TGI (OVCAR-3 ovarian): 5.95 µM
- GI50 (NCI-H460 NSCLC): 1930 nM
- TGI (NCI-H460 NSCLC): 3.46 µM
- GI50 (HS 578T breast): 1600 nM
- TGI (HS 578T breast): 3.56 µM
- GI50 (ACHN renal): 3.79 µM
- GI50 (T-47D breast): 1930 nM
- TGI (T-47D breast): 8.06 µM
- GI50 (A498 renal): 2780 nM
- TGI (A498 renal): 9.16 µM
- GI50 (HT29 colon): 3.69 µM
- GI50 (LOX IMVI melanoma): 2220 nM
- TGI (LOX IMVI melanoma): 5.08 µM
- GI50 (K-562 leukemia): 3000 nM
- TGI (K-562 leukemia): 32.2 µM
- GI50 (UO-31 renal): 2990 nM
- GI50 (HCT-15 colon): 3.54 µM
- GI50 (U251 glioblastoma): 3.8 µM
- GI50 (HOP-62 NSCLC): 1850 nM
- TGI (HOP-62 NSCLC): 4.11 µM
- GI50 (CAKI-1 renal): 3.04 µM
- TGI (CAKI-1 renal): 21.4 µM
- GI50 (A549 NSCLC): 3.33 µM
- TGI (A549 NSCLC): > 100 µM
- GI50 (PC-3 prostate): 2040 nM
- TGI (PC-3 prostate): 4.58 µM
- GI50 (SF-539 CNS): 3.76 µM
- GI50 (SNB-75 CNS): 3.07 µM
- TGI (SNB-75 CNS): 16.7 µM
- GI50 (COLO 205 colon): 6.06 µM
- GI50 (NCI-H322M lung): 2290 nM
- TGI (NCI-H322M lung): 5.49 µM
- GI50 (SW-620 colon): 3.93 µM
- GI50 (NCI-H522 lung): 2020 nM
- TGI (NCI-H522 lung): 5.12 µM
- GI50 (HL-60(TB) leukemia): 1320 nM
- TGI (HL-60(TB) leukemia): 2590 nM
